Legend:
Assay in all cases: Metabolic activity, Biolog phenotype microarray
Type in all cases: cell-based
Settings in all cases: control without dipeptide = 1
Actinomyces naeslundii = test system: Actinomyces naeslundii
Procedure, shortened: (§1)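 Each species, grown 48 h anaerobically on blood agar, was suspended in IF-0 fluid with tetrazolium Redox Dye D, succinate and ferric citrate, then dispensed onto dipeptide-preloaded plates. Incubated anaerobically at 37° C; OD 492 nm read at 24 and 48 h versus no-dipeptide controls; mean of three biological replicates.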

Actinomyces viscosus = test system: Actinomyces viscosus
Procedure, shortened: as §1

[1] = test system: Aggregatibacter actinomycetemcomitans
Procedure, shortened: as §1

Capnocytophaga sputigena = test system: Capnocytophaga sputigena
Procedure, shortened: as §1

Fusobacterium nucleatum = test system: Fusobacterium nucleatum
Procedure, shortened: as §1

Porphyromonas gingivalis = test system: Porphyromonas gingivalis
Procedure, shortened: as §1

Prevotella intermedia = test system: Prevotella intermedia
Procedure, shortened: as §1

Streptococcus gordonii = test system: Streptococcus gordonii
Procedure, shortened: as §1

Streptococcus mitis = test system: Streptococcus mitis
Procedure, shortened: as §1

Streptococcus mutans = test system: Streptococcus mutans
Procedure, shortened: as §1

Streptococcus salivarius = test system: Streptococcus salivarius
Procedure, shortened: as §1

Streptococcus sanguinis = test system: Streptococcus sanguinis
Procedure, shortened: as §1

Streptococcus sobrinus = test system: Streptococcus sobrinus
Procedure, shortened: as §1

Tannerella forsythia = test system: Tannerella forsythia
Procedure, shortened: as §1

Veillonella parvula = test system: Veillonella parvula
Procedure, shortened: as §1

Row | Substance | metabolic activity: OD 492 nm divided by OD of control (Actinomyces naeslundii; 24 hrs) | metabolic activity: OD 492 nm divided by OD of control (Actinomyces naeslundii; 48 hrs) | metabolic activity: OD 492 nm divided by OD of control (Actinomyces viscosus; 24 hrs) | metabolic activity: OD 492 nm divided by OD of control (Actinomyces viscosus; 48 hrs) | metabolic activity: OD 492 nm divided by OD of control ([1]; 24 hrs) | metabolic activity: OD 492 nm divided by OD of control ([1]; 48 hrs) | metabolic activity: OD 492 nm divided by OD of control (Capnocytophaga sputigena; 24 hrs) | metabolic activity: OD 492 nm divided by OD of control (Capnocytophaga sputigena; 48 hrs) | metabolic activity: OD 492 nm divided by OD of control (Fusobacterium nucleatum; 24 hrs) | metabolic activity: OD 492 nm divided by OD of control (Fusobacterium nucleatum; 48 hrs) | metabolic activity: OD 492 nm divided by OD of control (Porphyromonas gingivalis; 24 hrs) | metabolic activity: OD 492 nm divided by OD of control (Porphyromonas gingivalis; 48 hrs) | metabolic activity: OD 492 nm divided by OD of control (Prevotella intermedia; 24 hrs) | metabolic activity: OD 492 nm divided by OD of control (Prevotella intermedia; 48 hrs) | metabolic activity: OD 492 nm divided by OD of control (Streptococcus gordonii; 24 hrs) | metabolic activity: OD 492 nm divided by OD of control (Streptococcus gordonii; 48 hrs) | metabolic activity: OD 492 nm divided by OD of control (Streptococcus mitis; 24 hrs) | metabolic activity: OD 492 nm divided by OD of control (Streptococcus mitis; 48 hrs) | metabolic activity: OD 492 nm divided by OD of control (Streptococcus mutans; 24 hrs) | metabolic activity: OD 492 nm divided by OD of control (Streptococcus mutans; 48 hrs) | other results
1 | Met-Pro | 1.0381 | 1.0427 | 1.5865 | 2.0588 | 0.9162 | 0.8616 | 2.5077 | 1.8376 | 0.8752 | 0.8113 | 1.0029 | 1.0774 | 0.9704 | 0.9393 | 1.0870 | 1.0447 | 1.0020 | 0.9214 | 0.9563 | 0.9242 | metabolic activity: OD 492 nm divided by OD of control (Streptococcus salivarius; 24 hrs): 0.9990; metabolic activity: OD 492 nm divided by OD of control (Streptococcus salivarius; 48 hrs): 0.9500; metabolic activity: OD 492 nm divided by OD of control (Streptococcus sanguinis; 24 hrs): 0.8599; metabolic activity: OD 492 nm divided by OD of control (Streptococcus sanguinis; 48 hrs): 0.8295; metabolic activity: OD 492 nm divided by OD of control (Streptococcus sobrinus; 24 hrs): 1.0338; metabolic activity: OD 492 nm divided by OD of control (Streptococcus sobrinus; 48 hrs): 1.0538; metabolic activity: OD 492 nm divided by OD of control (Tannerella forsythia; 24 hrs): 0.9040; metabolic activity: OD 492 nm divided by OD of control (Tannerella forsythia; 48 hrs): 0.9403; metabolic activity: OD 492 nm divided by OD of control (Veillonella parvula; 24 hrs): 0.7714; metabolic activity: OD 492 nm divided by OD of control (Veillonella parvula; 48 hrs): 0.6345
2 | Phe-Glu | 0.9642 | 0.9466 | 1.3824 | 2.1224 | 0.9204 | 0.9345 | 2.1428 | 1.7139 | 0.9451 | 0.9112 | 0.9806 | 0.9029 | 1.0519 | 0.9562 | 0.8472 | 0.9890 | 1.0644 | 1.1176 | 1.0352 | 0.9816 | metabolic activity: OD 492 nm divided by OD of control (Streptococcus salivarius; 24 hrs): 1.0411; metabolic activity: OD 492 nm divided by OD of control (Streptococcus salivarius; 48 hrs): 0.9959; metabolic activity: OD 492 nm divided by OD of control (Streptococcus sanguinis; 24 hrs): 1.0204; metabolic activity: OD 492 nm divided by OD of control (Streptococcus sanguinis; 48 hrs): 1.0208; metabolic activity: OD 492 nm divided by OD of control (Streptococcus sobrinus; 24 hrs): 1.0354; metabolic activity: OD 492 nm divided by OD of control (Streptococcus sobrinus; 48 hrs): 1.0539; metabolic activity: OD 492 nm divided by OD of control (Tannerella forsythia; 24 hrs): 1.0452; metabolic activity: OD 492 nm divided by OD of control (Tannerella forsythia; 48 hrs): 1.0015; metabolic activity: OD 492 nm divided by OD of control (Veillonella parvula; 24 hrs): 0.8043; metabolic activity: OD 492 nm divided by OD of control (Veillonella parvula; 48 hrs): 0.7552
